Data published in patent publication US20230159510A1, “NOVEL PRMT5 INHIBITORS” (AMGEN INC., priority 2020, published 2023).
Like-named read-outs stand apart in the source and are kept apart here.

Legend:
HCT116 MTAP null cells = assay: HCT116 proliferation assay, MTAP null cells (CellTiter-Glo, 6 days); assay type: cell-based; settings: read-out: Protif_ HCT116-MTAP null IC50
Description: (§1) HCT116 MTAP null and WT cells were seeded in 96-well tissue culture plates in RPMI 1640 media + 10% fetal bovine serum. Plates were incubated overnight at 37° C. and 5% CO2. Cells were then treated with a 8- or 9-point serial dilution of compound, using a top concentration of 1 or 10 µM, 1:3 serial dilution steps and, a DMSO-only control. Cells were incubated in the presence of drug for 6 days. Effects on cell viability were measured with the CellTiter-Glo® Luminescent Cell Viability Assay (Promega) per manufacturer’s recommendation. Assay plates were read on an EnVision™ Multilabel Reader using the Ultra-Sensitive luminescence module.

HCT116 WT cells = assay: HCT116 proliferation assay, WT cells (CellTiter-Glo, 6 days); assay type: cell-based; settings: read-out: Prolif_HCT116-WT IC50
Description: as §1

| Compound | IC50 (HCT116 MTAP null cells; HCT116-MTAP null, 144 h) [nM] | IC50 (HCT116 WT cells; Homo sapiens, HCT-116, 144 h) [nM] | IC50 (HCT116 MTAP null cells) [nM] | IC50 (HCT116 WT cells) [nM] | IC50 (HCT116 MTAP null cells; 144 h) [nM] |
| --- | --- | --- | --- | --- | --- |
| CO[C@@H]1CCOC[C@H]1N(Cc1ccc(C(F)(F)F)cn1)C(=O)c1ccc2nc(N)c(C)cc2c1 (single isomer, unassigned) [Example 782] | 17 | 460 | – | – | – |
| C[C@H](c1ncccn1)N(Cc1ccc(OC(F)F)nn1)C(=O)c1ccc2nc(N)c(Br)cc2c1 [Example 746, (R)-2-amino-3-bromo-N-((6-(difluoromethoxy)pyridazin-3-yl)methyl)-N-(1-(pyrimidin-2-yl)ethyl)quinoline-6-carboxamide] | 139 | 7260 | – | – | – |
| COc1ccc(CN(C[C@H](OC)C(F)(F)F)C(=O)c2ccc3nc(N)c(C)cc3c2)nn1 (single isomer, unassigned) [Example 774] | 139 | 5210 | – | – | – |
| Cc1cc2cc(C(=O)N(Cc3ccc(C(F)(F)F)nn3)[C@@H]3CCCn4ccnc43)ccc2nc1N (single isomer, unassigned) [Example 813] | 98 | 2630 | – | – | – |
| Cc1cc2cc(C(=O)N(Cc3cc(Cl)c(C#N)cn3)[C@H](C)c3ncccn3)ccc2nc1N [Example 807, (R)-2-amino-N-((4-chloro-5-cyanopyridin-2-yl)methyl)-3-methyl-N-(1-(pyrimidin-2-yl)ethyl)quinoline-6-carboxamide] | 75 | 764 | – | – | – |
| Cc1cc2cc(C(=O)N(Cc3ccc(C(C)(C)O)cn3)[C@H](C)c3ncccn3)ccc2nc1N [Example 801, 2-amino-N-((5-(2-hydroxy-2-propanyl)-2-pyridinyl)methyl)-3-methyl-N-((1R)-1-(2-pyrimidinyl)ethyl)-6-quinolinecarboxamide] | 533 | > 10000 | – | – | – |
| Nc1nc2ccc(C(=O)N(Cc3ccc(C(F)(F)F)cn3)C3CCOC3C3CC3)cc2cc1Br (centres unmarked) [Example 832, 2-amino-3-bromo-N-(2-cyclopropyltetrahydrofuran-3-yl)-N-((5-(trifluoromethyl)pyridin-2-yl)methyl)quinoline-6-carboxamide] | 380 | > 10000 | – | – | – |
| Cc1cc2cc(C(=O)N(Cc3ccc(C(F)(F)F)cn3)C(C)c3ccnc(F)c3)ccc2nc1N (centres unmarked) [Example 797, 2-amino-N-(1-(2-fluoropyridin-4-yl)ethyl)-3-methyl-N-((5-(trifluoromethyl)pyridin-2-yl)methyl)quinoline-6-carboxamide] | 229 | 3820 | – | – | – |
| C[C@H](c1ncccn1)N(Cc1ccc(Br)nn1)C(=O)c1ccc2nc(N)c(Br)cc2c1 [Example 740, (R)-2-amino-3-bromo-N-((6-bromopyridazin-3-yl)methyl)-N-(1-(pyrimidin-2-yl)ethyl)quinoline-6-carboxamide] | 80 | 4400 | – | – | – |
| C[C@H](c1ncccn1)N(Cc1ccc(C2CC2)nn1)C(=O)c1ccc2nc(N)c(Br)cc2c1 [Example 762, (R)-2-amino-3-bromo-N-((6-cyclopropylpyridazin-3-yl)methyl)-N-(1-(pyrimidin-2-yl)ethyl)quinoline-6-carboxamide] | 180 | 8800 | – | – | – |
| Cc1cc2cc(C(=O)N(Cc3ccc(N4CCCCC4)cc3)Cc3ccnc4[nH]ccc34)ccc2nc1N [Example 563, 2-amino-3-methyl-N-[[4-(1-piperidyl)phenyl]methyl]-N-(1H-pyrrolo [2,3-b]pyridin-4-ylmethyl)quinoline-6-carboxamide] | 165 | > 1000 | – | – | – |
| 2-amino-3-methyl-N-(4-(3-oxetanyl)benzyl)-N-((1R)-1-(2-pyrimidinyl)ethyl)-6-quinolinecarboxamide, 2-amino-3-methyl-N-(4-(3-oxetanyl)benzyl)-N-((1S)-1-(2-pyrimidinyl)ethyl)-6-quinolinecarboxamide [Example 802] | – | – | 393 | 9300 | – |
| CC[C@H](c1ncccn1)N(Cc1ccc(C#N)cn1)C(=O)c1ccc2nc(N)c(Br)cc2c1 [Example 759, (R)-2-amino-3-bromo-N-((5-cyanopyridin-2-yl)methyl)-N-(1-(pyrimidin-2-yl)propyl)quinoline-6-carboxamide] | 293 | > 10000 | – | – | – |
| [2H]C([2H])([2H])c1cc2cc(C(=O)N(Cc3ccc(C(F)(F)F)cn3)[C@H](C)c3ncccn3)ccc2nc1N [Example 399, (R)-2-amino-3-(methyl-d3)-N-(1-(pyrimidin-2-yl)ethyl)-N-((5-(trifluoromethyl)pyridin-2-yl)methyl)quinoline-6-carboxamide] | – | 872 | – | – | 36 |
| CCOC(C)CN(Cc1ccc(C(F)(F)F)cn1)C(=O)c1ccc2nc(N)c(C)cc2c1 (centres unmarked) [Example 584, 2-amino-N-(2-ethoxypropyl)-3-methyl-N-((5-(trifluoromethyl)pyridin-2-yl)methyl)quinoline-6-carboxamide] | 290 | > 1000 | – | – | – |
| C[C@H](c1ncccn1)N(Cc1ccc(Br)nn1)C(=O)c1ccc2nc(N)c(I)cc2c1 [Example 767, (R)-2-amino-N-((6-bromopyridazin-3-yl)methyl)-3-iodo-N-(1-(pyrimidin-2-yl)ethyl)quinoline-6-carboxamide] | 56 | 3550 | – | – | – |
| Cc1nc(CN(C(=O)c2cnc3nc(N)c(I)cc3c2)[C@H](C)c2ncccn2)ccc1C#N [Example 840, (R)-7-amino-N-((5-cyano-6-methylpyridin-2-yl)methyl)-6-iodo-N-(1-(pyrimidin-2-yl)ethy1)-1,8-naphthyridine-3-carboxamide] | 90 | 5500 | – | – | – |

More lines, main results first:

| IC50 (HCT116 MTAP null cells; HCT116-MTAP null, 144 h) [nM] | IC50 (HCT116 WT cells; Homo sapiens, HCT-116, 144 h) [nM] | IC50 (HCT116 MTAP null cells) [nM] | IC50 (HCT116 WT cells) [nM] | Compound | IC50 (HCT116 MTAP null cells; 144 h) [nM] |
| --- | --- | --- | --- | --- | --- |
| 549 | > 1000 | – | – | Cc1cc2cc(C(=O)N(Cc3ccc4[nH]c(=O)[nH]c4c3)Cc3ccnc4[nH]ccc34)ccc2nc1N [Example 589, N-((1H-pyrrolo[2,3-b]pyridin-4-yl)methyl)-2-amino-3-methyl-N-((2-oxo-2,3-dihydro-1H-benzo [d]imidazol-5-yl)methyl)quinoline-6-carboxamide] | – |
| 490 | > 1000 | – | – | Cc1cc2cc(C(=O)N(Cc3ccc(C(F)(F)F)cn3)Cc3cc(Cl)cn3C)ccc2nc1N [Example 582, 2-amino-N-((4-chloro-1-methyl-1H-pyrrol-2-yl)methyl)-3-methyl-N-((5-(trifluoromethyl)pyridin-2-yl)methyl)quinoline-6-carboxamide] | – |
| 151 | 6960 | – | – | COc1ccc(CN(C(=O)c2ccc3nc(N)c(Br)cc3c2)[C@H](C)c2ncccc2F)nn1 [Example 736, 2-amino-3-bromo-N-((1R)-1-(3-fluoro-2-pyridinyl)ethyl)-N-((6-methoxy-3-pyridazinyl)methyl)-6-quinolinecarboxamide] | – |
| 270 | > 10000 | – | – | COC[C@@H](C)N(Cc1ccc(C(F)(F)F)cn1)C(=O)c1ccc2nc(N)c(C)cc2c1C [Example 771, 2-amino-N-((2R)-1-methoxy-2-propanyl)-3,5-dimethyl-N-((5-(trifluoromethyl)-2-pyridinyl)methyl)-6-quinolinecarboxamide] | – |
| 380 | > 10000 | – | – | CC1COCCC1N(Cc1ccc(C(F)(F)F)cn1)C(=O)c1ccc2nc(N)c(Br)cc2c1 (centres unmarked) [Example 830, 2-amino-3-bromo-N-(3-methyltetrahydro-2H-pyran-4-yl)-N-((5-(trifluoromethyl)pyridin-2-yl)methyl)quinoline-6-carboxamide] | – |
| 405 | > 10000 | – | – | Cc1cc2cc(C(=O)N(Cc3ccc(C(F)(F)F)cn3)Cc3ncc(Cl)cn3)ccc2nc1N [Example 339, 2-amino-N-((5-chloro-2-pyrimidinyl)methyl)-3-methyl-N-((5-(trifluoromethyl)-2-pyridinyl)methyl)-6-quinolinecarboxamide] | – |
| 45 | 763 | – | – | COC(=O)N1CCC(c2ccc(CN(C(=O)c3ccc4nc(N)c(C)cc4c3)[C@H](C)c3ncccn3)nc2)CC1 [Example 822, methyl (R)-4-(6-((2-amino-3-methyl-N-(1-(pyrimidin-2-yl)ethyl)quinoline-6-carboxamido)methyl)pyridin-3-yl)piperidine-1-carboxylate] | – |
| 140 | > 1000 | – | – | Cc1cc2cc(C(=O)N(Cc3cc[nH]c3)Cc3ccc(C(F)(F)F)cn3)ccc2nc1N [Example 583, N-((1H-pyrrol-3-yl)methyl)-2-amino-3-methyl-N-((5-(trifluoromethyl)pyridin-2-yl)methyl)quinoline-6-carboxamide] | – |
| 102 | > 1000 | – | – | Cc1cc2cc(C(=O)N(Cc3ccc(C(F)(F)F)cn3)Cc3csnn3)ccc2nc1N [Example 564, 2-amino-3-methyl-N-(thiadiazol-4-ylmethyl)-N-[[5-(trifluoromethyl)-2-pyridyl]methyl] quinoline-6-carboxamide] | – |
| 490 | > 1000 | – | – | Cc1cc2cc(C(=O)N(Cc3ccc(N4CCCCC4)cc3)CC3(C#N)CC3)ccc2nc1N [Example 574, 2-amino-N-((1-cyanocyclopropyl)methyl)-3-methyl-N-(4-(piperidin-1-yl)benzyl)quinoline-6-carboxamide] | – |
| 369 | 1310 | – | – | Cc1cc2cc(C(=O)N(Cc3ccc(C(F)(F)F)cn3)[C@H]3CCC[C@@H]3OC(F)F)ccc2nc1N (single isomer, unassigned) [Example 817] | – |
| 264 | 6810 | – | – | Cc1cc2cc(C(=O)N(Cc3ccc(C#N)nn3)[C@H](C)c3ncccc3F)ccc2nc1N [Example 728, 2-amino-N-((6-cyano-3-pyridazinyl)methyl)-N-((1R)-1-(3-fluoro-2-pyridinyl)ethyl)-3-methyl-6-quinolinecarboxamide] | – |
| > 1000 | – | – | – | C#CCCCN(Cc1ccc(C(F)(F)F)cn1)C(=O)c1ccc2nc(N)c(C)cc2c1 [Example 692, 2-amino-3-methyl-N-pent-4-ynyl-N-[[5-(trifluoromethyl)-2-pyridyl]methyl] quinoline-6-carboxamide] | – |
